Assay results: patent US12606557B2, “Substituted indoles with inhibitory activity” (UNIVERSITY OF PITTSBURGH—OF THE COMMONWEALTH SYSTEM OF …, priority 2020, dated 2026)
Several values for one entry are separate records, joined by “and”; a condition that tells them apart may be missing. Equal entries are not always repeated. Where two headings read alike, the source gives them in different places.

Assay: Blood pharmacokinetics after a single intraperitoneal dose
Format: in vivo, male CD1 mice
Conditions: for blood concentrations quantifiable up to: 1 animal out of 3, LLOQ 10.04 ng/mL; for concentration at 0.08 hr / concentration at 0.25 hr / concentration at 0.5 hr / concentration at 1 hr / concentration at 2 hr / concentration at 4 hr / concentration at 8 hr / concentration at 24 hr / AUC(0-inf) / AUC(0-t) / Cmax / Tmax: male, CD1, mouse, in vivo; for concentration at 24 hr: value excluded from data analysis; for AUC(0-inf) / AUC(0-t) / Cmax / Tmax: blood, mean
Experimental: The objective of this example was to investigate the blood pharmacokinetics of UPHH-123 in male CD1 mice following a single intraperitoneal dose administration. Eighteen male CD1 mice were divided in two groups as, Group 1 and Group 2 comprising nine mice in each group.
Animals in Group 1 were administered intraperitoneally with UPHH-123 solution formulation in 5% NMP, 5% Solutol HS, 30% PEG-400 and 60% normal saline at 10.4 mg/kg dose. Animals in Group 2 were administered intraperitoneally with UPHH-123 solution formulation in 5% NMP, 5% Solutol HS, 30% PEG-400 and 60% normal saline) at 52 mg/kg dose.
Blood samples (approximately 120 μL) were collected at pre-dose, 0.08, 0.25, 0.5, 1, 2, 4, 8 and 24 hr. The blood samples were collected at each time point in a labeled micro centrifuge tube containing K2EDTA as anticoagulant. Immediately aliquot (50 μL) of blood was hemolyzed with equal volume of water (50 μL) and quenched with three volume (150 μL) of acetonitrile (IS containing acetonitrile) and samples were stored below −70° C. until bioanalysis. All samples were processed for analysis by protein precipitation using acetonitrile (ACN) and analyzed with fit for purpose LC/MS/MS method (LLOQ: 10.04 ng/mL for UPHH-123 in blood). Pharmacokinetic parameters were calculated using the non-compartmental analysis tool of Phoenix WinNonlin (Version 7.0). Mean pharmacokinetic parameters are summarized below: […]

## COc1ccc(Cn2ccc3ccc(C(=O)NO)cc32)cc1 [UPHH-123]
10.4 mg/kg IP
  blood concentrations quantifiable up to: up to 24 hr
  AUC(0-inf): 1950 ng·h/mL
  AUC(0-t): 1850 ng·h/mL
  Cmax: 3810 ng/mL
  Tmax: 15 min
10.4 mg/kg IP, 0.08 hr
  Blood Concentration, individual animal: 2082.46 ng/mL and 2293.56 ng/mL
10.4 mg/kg IP, 0.25 hr
  Blood Concentration, individual animal: 2572.69 ng/mL and 4414.44 ng/mL
10.4 mg/kg IP, 0.5 hr
  Blood Concentration, individual animal: 675.87 ng/mL and 848.67 ng/mL
10.4 mg/kg IP, 1 hr
  Blood Concentration, individual animal: 105.72 ng/mL and 180.27 ng/mL
10.4 mg/kg IP, 2 hr
  Blood Concentration, individual animal: 39.90 ng/mL and 98.73 ng/mL and 125.25 ng/mL
10.4 mg/kg IP, 4 hr
  Blood Concentration, individual animal: 47.81 ng/mL and 118.38 ng/mL and 92.93 ng/mL
10.4 mg/kg IP, 8 hr
  Blood Concentration, individual animal: 26.21 ng/mL and 17.80 ng/mL
10.4 mg/kg IP, 24 hr, below LLOQ 10.04 ng/mL = zero
  Blood Concentration, individual animal: 0.00 ng/mL (2×) and 14.58 ng/mL
52 mg/kg IP
  blood concentrations quantifiable up to: up to 24 hr
  AUC(0-inf): 7640 ng·h/mL
  AUC(0-t): 6680 ng·h/mL
  Cmax: 6160 ng/mL
  Tmax: 4.8 min
52 mg/kg IP, 0.08 hr
  Blood Concentration, individual animal: 7841.88 ng/mL and 4635.35 ng/mL
52 mg/kg IP, 0.25 hr
  Blood Concentration, individual animal: 6058.02 ng/mL and 5694.33 ng/mL
52 mg/kg IP, 0.5 hr
  Blood Concentration, individual animal: 3520.30 ng/mL and 4708.54 ng/mL
52 mg/kg IP, 1 hr
  Blood Concentration, individual animal: 2031.75 ng/mL and 2659.04 ng/mL
52 mg/kg IP, 2 hr
  Blood Concentration, individual animal: 315.76 ng/mL and 238.47 ng/mL and 525.92 ng/mL
52 mg/kg IP, 4 hr
  Blood Concentration, individual animal: 442.67 ng/mL and 145.43 ng/mL and 125.55 ng/mL
52 mg/kg IP, 8 hr
  Blood Concentration, individual animal: 167.15 ng/mL and 107.02 ng/mL
52 mg/kg IP, 24 hr, below LLOQ 10.04 ng/mL = zero
  Blood Concentration, individual animal: 0.00 ng/mL (2×) and 10.38 ng/mL
From 10.4 to 52 mg/kg IP
  dose related increase in plasma exposure: 3.6 fold
10.4 mg/kg, 10.4 mg/kg IP, 0.08 hr, read-out: Blood Concentration, Mean
  concentration at 0.08 hr: 1990 ng/mL
10.4 mg/kg, 10.4 mg/kg IP, 0.08 hr, read-out: Blood Concentration, individual animal
  concentration at 0.08 hr: 1600 ng/mL
10.4 mg/kg, 10.4 mg/kg IP, 0.25 hr, read-out: Blood Concentration, Mean
  concentration at 0.25 hr: 3810 ng/mL
10.4 mg/kg, 10.4 mg/kg IP, 0.25 hr, read-out: Blood Concentration, individual animal
  concentration at 0.25 hr: 4440 ng/mL
10.4 mg/kg, 10.4 mg/kg IP, 0.5 hr, read-out: Blood Concentration, Mean
  concentration at 0.5 hr: 681 ng/mL
10.4 mg/kg, 10.4 mg/kg IP, 0.5 hr, read-out: Blood Concentration, individual animal
  concentration at 0.5 hr: 519 ng/mL
10.4 mg/kg, 10.4 mg/kg IP, 1 hr, read-out: Blood Concentration, Mean
  concentration at 1 hr: 148 ng/mL
10.4 mg/kg, 10.4 mg/kg IP, 1 hr, read-out: Blood Concentration, individual animal
  concentration at 1 hr: 158 ng/mL
10.4 mg/kg, 10.4 mg/kg IP, 2 hr
  concentration at 2 hr: 88 ng/mL
10.4 mg/kg, 10.4 mg/kg IP, 4 hr
  concentration at 4 hr: 86.4 ng/mL
10.4 mg/kg, 10.4 mg/kg IP, 8 hr, read-out: Blood Concentration, Mean
  concentration at 8 hr: 22.6 ng/mL
10.4 mg/kg, 10.4 mg/kg IP, 8 hr, read-out: Blood Concentration, individual animal
  concentration at 8 hr: 23.9 ng/mL
10.4 mg/kg, 10.4 mg/kg IP, 24 hr
  concentration at 24 hr: 14.6 ng/mL
52 mg/kg, 52 mg/kg IP, 0.08 hr, read-out: Blood Concentration, Mean
  concentration at 0.08 hr: 6160 ng/mL
52 mg/kg, 52 mg/kg IP, 0.08 hr, read-out: Blood Concentration, individual animal
  concentration at 0.08 hr: 6000 ng/mL
52 mg/kg, 52 mg/kg IP, 0.25 hr, read-out: Blood Concentration, Mean
  concentration at 0.25 hr: 5680 ng/mL
52 mg/kg, 52 mg/kg IP, 0.25 hr, read-out: Blood Concentration, individual animal
  concentration at 0.25 hr: 5280 ng/mL
52 mg/kg, 52 mg/kg IP, 0.5 hr, read-out: Blood Concentration, Mean
  concentration at 0.5 hr: 3820 ng/mL
52 mg/kg, 52 mg/kg IP, 0.5 hr, read-out: Blood Concentration, individual animal
  concentration at 0.5 hr: 3230 ng/mL
52 mg/kg, 52 mg/kg IP, 1 hr, read-out: Blood Concentration, Mean
  concentration at 1 hr: 2330 ng/mL
52 mg/kg, 52 mg/kg IP, 1 hr, read-out: Blood Concentration, individual animal
  concentration at 1 hr: 2280 ng/mL
52 mg/kg, 52 mg/kg IP, 2 hr
  concentration at 2 hr: 360 ng/mL
52 mg/kg, 52 mg/kg IP, 4 hr
  concentration at 4 hr: 238 ng/mL
52 mg/kg, 52 mg/kg IP, 8 hr, read-out: Blood Concentration, Mean
  concentration at 8 hr: 145 ng/mL
52 mg/kg, 52 mg/kg IP, 8 hr, read-out: Blood Concentration, individual animal
  concentration at 8 hr: 160 ng/mL
52 mg/kg, 52 mg/kg IP, 24 hr
  concentration at 24 hr: 10.4 ng/mL
